Reference: ChEMBL document CHEMBL3808314, “Discovery and Optimization of Potent, Selective, and in Vivo Efficacious 2-Aryl Benzimidazole BCATm Inhibitors” (ACS Med Chem Lett, 2016)
Active and inactive are the calls of the source. The rule behind the calls is not given here.

What was measured:
[1] = target: T1, Branched-chain-amino-acid aminotransferase, cytosolic (Homo sapiens, UniProt P54687); assay: Inhibition of BCATc (unknown origin)
T1 sequence (P54687 whole entry): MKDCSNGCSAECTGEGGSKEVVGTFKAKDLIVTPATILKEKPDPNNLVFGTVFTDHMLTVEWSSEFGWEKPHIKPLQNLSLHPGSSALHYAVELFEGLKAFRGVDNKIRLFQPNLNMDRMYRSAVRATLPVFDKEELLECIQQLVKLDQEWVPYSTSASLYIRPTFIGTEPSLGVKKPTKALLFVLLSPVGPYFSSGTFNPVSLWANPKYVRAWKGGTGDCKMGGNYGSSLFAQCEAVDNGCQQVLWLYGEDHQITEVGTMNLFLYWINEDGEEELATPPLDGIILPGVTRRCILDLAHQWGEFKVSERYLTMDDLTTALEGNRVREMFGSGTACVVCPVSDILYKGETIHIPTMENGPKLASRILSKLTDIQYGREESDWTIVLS

[2] = Clearance in mouse blood at 1 mg/kg, iv; type: ADME, organism-based
[3] = Half life of compound in mouse at 1 mg/kg, iv; type: ADME, organism-based; settings: in vivo
[4] = Volume of distribution at steady state in mouse at 1 mg/kg, iv; type: ADME, organism-based; settings: in vivo, read-out: Vdss
[5] = AUC (0 to infinity) in mouse at 5 mg/kg, po; type: ADME, organism-based; set-up: dose 5 mg/kg, route oral, time infinity; settings: in vivo
[6] = Cmax in mouse at 5 mg/kg, po; type: ADME, organism-based; set-up: dose 5 mg/kg, route oral; settings: in vivo
[7] = Oral bioavailability in mouse at 5 mg/kg; type: ADME, organism-based; settings: in vivo
[8] = Plasma protein binding in mouse; type: ADME, cell-free; settings: read-out: PPB (converted)
Mus musculus [9] = assay: Increase in luecine level in C57Black/6J mouse serum at 300 mg/kg, po administered 5 hrs post fasting state followed by refeeding of amino acid mixture at 30 mins post dose measured after 1 hr by HPLC method; type: functional, organism-based
Mus musculus [10] = assay: Increase in isoluecine level in C57Black/6J mouse serum at 300 mg/kg, po administered 5 hrs post fasting state followed by refeeding of amino acid mixture at 30 mins post dose measured after 1 hr by HPLC method; type: functional, organism-based
Mus musculus [11] = assay: Increase in valine level in C57Black/6J mouse serum at 300 mg/kg, po administered 5 hrs post fasting state followed by refeeding of amino acid mixture at 30 mins post dose measured after 1 hr by HPLC method; type: functional, organism-based
Mus musculus [12] = assay: Increase in luecine level in po dosed C57Black/6J mouse serum administered 5 hrs post fasting state followed by refeeding of amino acid mixture at 6 hrs post dose measured after 1 hr by HPLC method relative to vehicle control; type: functional, organism-based
Mus musculus [13] = assay: Increase in isoluecine level in po dosed C57Black/6J mouse serum administered 5 hrs post fasting state followed by refeeding of amino acid mixture at 6 hrs post dose measured after 1 hr by HPLC method relative to vehicle control; type: functional, organism-based
Mus musculus [14] = assay: Increase in valine level in po dosed C57Black/6J mouse serum administered 5 hrs post fasting state followed by refeeding of amino acid mixture at 6 hrs post dose measured after 1 hr by HPLC method relative to vehicle control; type: functional, organism-based

Row | Structure (SMILES) | IC50 [1] | clearance [2] | half-life [3] | Vd [4] | AUC(0-inf) [5] | Cmax [6] | bioavailability [7] | fraction unbound [8] | Activity (Mus musculus [9]) | Activity (Mus musculus [10]) | Activity (Mus musculus [11]) | Activity (Mus musculus [12]) | Activity (Mus musculus [13]) | Activity (Mus musculus [14])
1 | CNC(=O)c1ccc2c(c1)nc(-c1ccccn1)n2[C@@H]1CCC[C@H](NC(=O)c2ccc(Br)s2)C1 (relative stereo) | 3.98 µM | 4 mL/min/kg | 3.7 h | 0.9 L/kg | 5810 ng·h/mL | 1650 ng/mL | 28% | 0.029 | Active | Active | Active | Dose-dependent effect | Dose-dependent effect | Dose-dependent effect
2 | CNC(=O)c1ccc2c(c1)nc(-c1ccccc1SC)n2[C@@H]1CCC[C@H](NC(=O)c2ccc(Br)s2)C1 (relative stereo) | 1.26 µM | 23 mL/min/kg | 1.4 h | 1.3 L/kg | 338 ng·h/mL | 129 ng/mL | 10% | 0.005 |  |  |  |  |  | 
